Assay [1] relates to endogenous proton-activated currents in HEK cells. Kind of assay: cells. It counts as cell-based, human. The note with it: HEK cells. Here is the method: (§1) CHO hASIC1a cells were cultured according to vendor instructions (B-SYS GmbH) and HEK cells using standard in-house methods. Both cell lines were harvested using optimized protocols and re-suspended in serum-free media (Gibco CHO-S-SFM from Thermo Fisher Scientific for CHO cells, and Ex-Cell 302 from Merck Sigma-Aldrich for HEK cells) to obtain a suspension of cells with smooth membranes and little debris, before transfer to the automated cell hotel consisting of a 60 ml plastic container (Sophion SB2050) and a magnetic stir bar to prevent cell clumping. An aliquot of cells is then aspirated into a 1 ml microcentrifuge tube and spun down (typically 150 g for 2.5 min) and the supernatant discarded before a user-defined volume of external solution is added by the robot and the cells re-suspended to achieve the desired final cell suspension density before application to primed QPlates. Cell capture, sealing and whole-cell access was achieved using optimized QPatch protocols before currents were recorded using a holding potential of −60 mV. […] Cells were washed three times with external pH 7.3 solution (5 μl) between applications of activating acidic solution to establish a stable ASIC1a current baseline. […] Each concentration of reference compound was applied to each cell before (i.e., during each pH 7.3 application period) and during each pH stimulus (IC50 mode). Thus, each concentration of test compound was pre-incubated with cells for at least 2 min before, and then during each acidic solution challenge, before wash-off in a neutral pH 7.3 solution that contained the next concentration of the same compound. Cells were allowed at least 2 min between applications of acidic solution to enable ASIC1a receptors to recover from desensitization.
Concentration-response xC50 curves from Patchliner and QPatch 48 experiments were calculated by plotting %inhibition (antagonists) or activation (pH) data against concentration in Prism software (GraphPad), using the variable sigmoidal dose-response function to fit the Hill equation with theoretical minimum block of 0% and maximum block of 100% and a free constant for Hill slope. Inward current amplitudes were compared to the response to a control pH application (typically pH 6.5) prior to antagonist application or excitation by solutions of different pH to enable calculation of %inhibition or %activation for each cell.
To quickly confirm a previous publication that HEK cells express endogenous ASIC1a receptor channels and assess the suitability of this cell system for drug discovery screening on APC platforms, we utilized the medium throughput QPatch 48 device. The QPatch uses 48 well microfluidic planar borosilicate chips and coated titanium pipette tips to make whole-cell recordings and sequentially apply small liquid volumes to enable rapid activation followed by slower deactivation (wash-off) of ligand-gated ionotropic responses. HEK cells were voltage-clamped at −60 mV and maintained in external solution at pH 7.4 to avoid steady-state desensitization of ASIC1 receptor channels. Cells were stimulated by external solutions with pH values ranging between 7.0 and 5.5 that evoked rapidly activating inward currents, followed by wash-off in pH 7.4 solution.

The test system of a further assay is TRPV1 receptor channels. Further details: method as in Diochot et al., 2012. The note with it: ref Diochot et al., 2012; cited from earlier work.
Assay [2] has as its target T1, hASIC1a (Homo sapiens, UniProt P78348).
T1 sequence (P78348 1-528): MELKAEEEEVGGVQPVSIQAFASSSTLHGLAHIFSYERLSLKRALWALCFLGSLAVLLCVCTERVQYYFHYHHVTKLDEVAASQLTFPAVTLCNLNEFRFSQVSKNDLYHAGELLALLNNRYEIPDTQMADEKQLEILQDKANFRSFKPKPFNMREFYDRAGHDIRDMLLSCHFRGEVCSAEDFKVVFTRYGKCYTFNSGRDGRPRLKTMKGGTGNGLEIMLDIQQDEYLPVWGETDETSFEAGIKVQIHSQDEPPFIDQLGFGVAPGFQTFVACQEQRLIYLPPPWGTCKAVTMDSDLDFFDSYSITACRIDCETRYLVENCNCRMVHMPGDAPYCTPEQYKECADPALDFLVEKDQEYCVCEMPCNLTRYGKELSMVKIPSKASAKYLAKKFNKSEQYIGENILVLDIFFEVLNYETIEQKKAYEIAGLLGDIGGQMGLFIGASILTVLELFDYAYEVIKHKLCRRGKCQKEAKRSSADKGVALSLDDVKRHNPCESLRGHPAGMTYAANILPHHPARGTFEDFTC
Kind of assay: QPatch 48 APC, CHO hASIC1a, multi-hole (10 hole X-plate) recordings. Further details: host or cells: CHO (tetracycline-inducible). It counts as cell-based. As for the experimental part: as §1
(§2) Concentration-response xC50 curves from Patchliner and QPatch 48 experiments were calculated by plotting %inhibition (antagonists) or activation (pH) data against concentration in Prism software (GraphPad), using the variable sigmoidal dose-response function to fit the Hill equation with theoretical minimum block of 0% and maximum block of 100% and a free constant for Hill slope.
Before employing a more efficient multi-hole assay it is important to establish that this variant of the APC whole-cell recording format returns the same biophysics and pharmacology as single cell recordings. To this end we ran some of the reference compounds detailed above in 10 hole “X-plate” mode on the QPatch 48.
(In general: The patch-clamp technique gives a direct electrical read-out from membranes.)

Assay [3] deals with T1, hASIC1a. Kind of assay: cell-based. The arrangement: host or cells: CHO (tetracycline-inducible). The note with it: pH 6.5 agonist, QPatch 48 single hole; for IC50: 2 min pre-incubation. As for the experimental part: as §1, §2
In addition, this protocol is designed to avoid tachyphylaxis associated with a more acidic pH stimulus, and it allows the development of a ligand-gated ASIC1a channel assay that can distinguish between agonists, partial agonists and antagonists. […] Compounds were tested using the cumulative concentration-response assay format shown in Figure 5A, which includes a 2 min pre-incubation period for each concentration to allow test samples to reach and equilibrate with their binding site(s) in the pore or large extracellular binding domain of ASIC1 receptor trimers. Agonist effects can also be detected during this period as membrane current data is recorded after every liquid addition. […] Mean inhibition data for each test sample is plotted against Log[compound] and fit with a concentration-response function.

The test system of a further assay is rat ASIC1a. The arrangement: method as in Diochot et al., 2012. The note with it: ref Diochot et al., 2012, read-out: IC50 potency for the rat ortholog; cited from earlier work.
Assay [4] has as its target T1, hASIC1a. Further details: host or cells: CHO. The following applies: ref Diochot et al., 2012, cited from earlier work.
The next assay relates to ASIC1a. The arrangement: method as in Nagaeva et al., 2016. The following applies: ref Nagaeva et al., 2016; cited from earlier work.
Assay [5] concerns "ASIC1-like" pH-activated currents in rat dorsal root ganglion neurons. Further details: method as in Dubé et al., 2005. The following applies: ref Dubé et al., 2005, read-out: Literature IC50; cited from earlier work.

Where “and” joins values, the source holds several entries; their conditions need not be identical. Equal values may be shown once. Read-outs that look alike come from different tables or passages of the source. Bridges are numbered along the chain shown (N, C = ends). Where no end group is shown, it is not given here.

“LKCYQHGKVVTCHRDMKFCYHNIGMPFRNLKLILQGCSSSCSETENNKCCSTDRCNK (disulfide 3-19, 12-37, 41-49, 50-55) [Mambalgin-3]”: the “block of endogenous proton-activated currents” value in assay [1] (300 nM) is roughly 75%. For the same compound, in assay [1], the “potentiation of endogenous pH-evoked responses” value is recorded as “no evidence for such modulation”. Further, the IC50 was 119 nM in assay [1] (pH 6.5 activation, QPatch 48, read-out: cumulative IC50); 160 nM at hASIC1a [2]; 0.16 µM at hASIC1a [3] (IC50 potency); 17 to 55 nM with rat ASIC1a; 127 nM at hASIC1a [4] (read-out: Literature IC50). For the same compound, in the assay on TRPV1 receptor channels, the “inhibition of TRPV1 receptor channels” value is on record as “does not inhibit”. Also, at hASIC1a [2] (multi-hole recordings, QPatch 48), the “Hill slope (Hn)” value worked out at 1.80. The Hill slope at hASIC1a [3] came to 1.8.

Take `CC12CC3CC(C)(C1)CC(N)(C3)C2` [Memantine]: the IC50 on hASIC1a [3] (read-out: IC50 potency) stood at 315 µM. The same compound displayed a Hill slope at hASIC1a [3] of 1.1. Further, the “Literature inhibition at 500 μM” value in the assay on ASIC1a is recorded as 31% at 500 μM.

With `N.N.N.N.N.N.N.N.N.N.N.N.N.N.[Cl-].[Cl-].[Cl-].[Cl-].[Cl-].[Cl-].[O-2].[O-2].[Ru+3].[Ru+3].[Ru+4]` [Ruthenium Red], the “inhibition of amplitude of currents activated by pH 6.5” value in assay [1] (1 μM Ruthenium Red) is recorded as 12 ± 7%.

Consider `CC(C)C1c2cc(C3CC3c3ccc4cc(C(=N)N)ccc4c3)ccc2CCN1C` (centres unmarked) [A-317567], for which the figures for the IC50 (in assay [5]; on hASIC1a [3] (read-out: IC50 potency)) were 2000 nM and 0.66 µM, respectively. Also, the Hill slope on hASIC1a [3] stood at 0.9.

For the compound `NC12CC3CC(CC(C3)C1)C2` [Amantadine], the IC50 at hASIC1a [3] (read-out: IC50 potency) was 510 µM. Further, the Hill slope on hASIC1a [3] is recorded as 0.9.

For the compound “Mambalgin-1 (LKCYQHGKVVTCHRDMKFCYHNTGMPFRNLKLILQGCSSSCSETENNKCCSTDRCNK; ends and bridges not checked; cysteine pairing not given here; UniProt P0DKR6 22-78, looked up) [snake toxin differing from Mambalgin-3 at one non-critical amino acid residue]”, the IC50 in the assay with hASIC1a [4] (Sun et al., 2018, read-out: quoted values against human ASIC1a channels) was 127 nM and 197 nM.

Usually Hill slope stands for a measure of the steepness of the concentration-response curve.
